Test results published in paper PMC12216609, “Inhibitors of eIF1A-ribosome interaction unveil uORF-dependent regulation of translation initiation and antitumor and antiviral effects” (The EMBO Journal, 2025).
“And” between values parts separate entries of the source, which are not always exact repeats. Equal values may be shown once. Read-outs that look alike come from different tables or passages of the source.

What was measured:
[1] = test system: IRF7 5'UTR firefly luciferase reporter in HEK293T cells; conditions: for Reference vs IRF7 (Final data, Fig. 1E): 1/Result, relative to DMSO; for LONG (summary - All), normalized to DMSO: Long reporter; for LONG (summary - All), normalized to DMSO / SHORT (summary - All), normalized to DMSO: individual replicates, outliers excluded, DMSO = 1; for average ( long vs short ratio): summary - All;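 on all read-outs here: luciferase signal corrected by a co-transfected GFP reporter for transfection efficiency, read after overnight compound exposure, with Long and Short reporters differing in 5'UTR length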
NSP1 = NSP1 (Severe acute respiratory syndrome coronavirus 2, UniProt P0DTD1)
[2] = test system: CUG/GUG vs AUG start codon luciferase reporters in HEK293T cells; assay: Near-cognate AUG starting codon fidelity reporter assay (GUG, CUG vs AUG); assay type: cell-based; conditions: for CUG vs AUG (%): CUG start codon reporter relative to AUG reporter (AUG = 100); for CUG vs AUG (%) / GUG vs AUG (%): single-experiment calculation; for GUG vs AUG (%): GUG start codon reporter relative to AUG reporter (AUG = 100); for average CUG and GUG / average CUG and GUG relative to DMSO / CUG Average / GUG Average: NUG experiment; for CUG Average: CUG vs AUG reporter; for GUG Average: GUG vs AUG reporter; for NUG (Final data, Fig. 1E): average CUG and GUG relative to DMSO, 20 µM overnight; for GUG vs AUG data (%): individual repeat; for GUG vs AUG (%) Average: summary average of repeats, DMSO control average […]
eIF1A without CTT = biological target: T1, eIF1A without CTT (Homo sapiens, UniProt P47813); assay type: binding; conditions: for fluorescence ratio, eIF1A Δ CTT: background-corrected, relative to DMSO or lowest 1Ai concentration, replicate columns
T1 construct: His-bdSUMO (cleaved yes); made in house; host or cells: E. coli (BL-21)
T1 sequence (P47813 1-114 limits assumed): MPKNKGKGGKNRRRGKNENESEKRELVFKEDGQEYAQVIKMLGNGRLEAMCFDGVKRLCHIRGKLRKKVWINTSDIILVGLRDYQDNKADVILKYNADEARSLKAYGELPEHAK

[3] = test system: uORF-bearing 5'UTR firefly reporters in HEK293T cells; assay: uORF reinitiation / leaky scanning firefly reporters; conditions: for ff/rl, 46 leaky reporter / ff/rl, 46 reporter / ff/rl, normal reporter: single replicates, not normalized to DMSO
From the text: (M) The reference and uORF-bearing reporters were transfected to HEK293T cells together with RL, which served to normalize translation efficiency. The reporter activities are represented as firefly vs RL; n ≥3 independent biological replicates, error bars represent SEM. *P < 0.05, **P < 0.01, Student t test. (N) Firefly Reporters (J) were transfected to HEK293T cells together with normalizing RL. […] Results are represented as firefly vs. RL normalized to DMSO in each biological replicate; n = 4, error bars represent SEM. *P < 0.05, **P < 0.01, Student t test.
In the first and second, we inserted an out-of-frame uAUG 46 or 95 nucleotides before the main ORF, respectively, followed by a downstream stop codon generating an uORF of 10 amino acids. In these constructs, the translation from the main ORF could be either by reinitiation or leaky scanning. In the third construct, this out of frame uAUG lacks a stop codon, causing initiation from the main ORF to exclusively occur via leaky scanning (Fig. 4L). These reporters were transfected into HEK293T cells together with RL luciferase reporter for normalizing transfection efficiency. […] We next examined these reporters in the presence of 1Ais.

eIF1A without NTT = biological target: T2, eIF1A without NTT (Homo sapiens, UniProt P47813); assay: Fluorescence binding assay with NTT-truncated eIF1A; conditions: for fluorescence ratio, eIF1A Δ NTT: background-corrected, relative to DMSO or lowest 1Ai concentration, replicate columns
T2 construct: His-bdSUMO (cleaved yes); made in house; host or cells: E. coli (BL-21)
T2 sequence (P47813 31-144 limits assumed): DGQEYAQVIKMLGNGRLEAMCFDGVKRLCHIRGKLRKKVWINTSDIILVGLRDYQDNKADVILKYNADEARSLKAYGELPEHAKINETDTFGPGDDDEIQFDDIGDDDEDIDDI

[4] = test system: regulatory CUG of SARS-CoV-2 ORF7a 5'UTR in HEK293T cells; assay type: cell-based
[5] = compound at 20uM (summary head)
[6] = compound at 10uM (summary head)

O=C(COc1ccccc1[N+](=O)[O-])NCc1ccc(-c2ccc(Br)cc2)o1 [1Ai-4700]
Reference vs IRF7 (Final data, Fig. 1E) ([1]; 20 µM): 2.452 | LONG (summary - All), normalized to DMSO ([1]; 20 µM): 0.84 and 0.38 and 0.21 and 0.60 | SHORT (summary - All), normalized to DMSO ([1]; Short reporter, 20 µM): 1.10 and 0.65 and 2.34 and 0.87 | average ( long vs short ratio) ([1]; 20 µM): 0.408 | GFP reporter ratio nsp1/gfp, avg (NSP1): 0.4331 | GFP reporter ratio nsp1/gfp, rep 1 (NSP1): 0.4284 | GFP reporter ratio nsp1/gfp, rep 2 (NSP1): 0.4378 | gfp signal, mean of duplicate wells (NSP1): 2716 and 2411 and 2645 | nsp1 signal, mean of duplicate wells (NSP1): 1163.5 and 1055.5 and 1429.5 | ratio (nsp1/gfp) (NSP1): 0.428 and 0.438 and 0.540 | CUG vs AUG (%) [2, 5]: 5.455% | GUG vs AUG (%) [2, 5]: 0.6501% | average CUG and GUG [2]: 6.461 | average CUG and GUG relative to DMSO [2]: 1.433 | CUG Average [2]: 9.432 | GUG Average [2]: 3.49 | NUG (Final data, Fig. 1E) [2]: 1.433 | GUG vs AUG data (%) ([2]; compound at 20uM): 3.85% and 2.62% and 3.02% and 4.47% | GUG vs AUG (%) Average ([2]; compound at 20uM): 3.49% | fluorescence ratio, eIF1A Δ CTT (eIF1A without CTT; 1Ai conc. 0.25 uM): 1.002 and 1.029 | fluorescence ratio, eIF1A Δ CTT (eIF1A without CTT; 1Ai conc. 0.5 uM): 0.8837 and 0.9156 | fluorescence ratio, eIF1A Δ CTT (eIF1A without CTT; 1Ai conc. 1 uM): 0.8554 and 0.8332 | fluorescence ratio, eIF1A Δ CTT (eIF1A without CTT; 1Ai conc. 2 uM): 0.9021 and 0.8902 | fluorescence ratio, eIF1A Δ CTT (eIF1A without CTT; 1Ai conc. 4 uM): 0.8119 and 0.7934 | fluorescence ratio, eIF1A Δ CTT (eIF1A without CTT; 1Ai conc. 8 uM): 0.6359 and 0.584 | fluorescence ratio, eIF1A Δ CTT (eIF1A without CTT; 1Ai conc. 16 uM): 0.7372 and 0.671 | fluorescence ratio, eIF1A Δ CTT (eIF1A without CTT; 1Ai conc. 32 uM): 0.5663 and 0.5472 | fluorescence ratio, eIF1A Δ CTT (eIF1A without CTT; 1Ai conc. 64 uM): 0.381 and 0.3897 | fluorescence ratio, eIF1A Δ CTT (eIF1A without CTT; 1Ai conc. 256 uM): 0.2785 and 0.26 | IC50 (eIF1A without CTT; eIF1A Δ CTT, from the titration data, read-out: IC50 (eIF1A Δ CTT titration block)): 30.2 µM | IC50 (eIF1A without CTT; summary table, fluorescence binding assay, read-out: IC50 concentration (µM), CTT truncation): 30.2 µM | effect on uORF / leaky scanning reporters ([3]; 20uM (1Ai-5175 at 5uM), overnight): inhibit the short-distance reinitiation | normalized to DMSO, 46 leaky, average ([3]; 46 leaky reporter, average of biological repeats): 0.994 | normalized to DMSO, 46 leaky, biological repeats ([3]; 46 leaky reporter, biological repeats 1-4): 0.989 and 1.082 and 1.159 and 0.746 | normalized to DMSO, 46 leaky ([3]; 46 leaky reporter, single replicates 1-8 (two dates)): 0.973 and 1.005 and 1.055 and 1.109 and 1.618 and 0.700 and 0.255 and 1.237 | normalized to DMSO, -46, average ([3]; -46 reporter, average of biological repeats): 0.679 | normalized to DMSO, -46, biological repeats ([3]; -46 reporter, biological repeats 1-4): 0.691 and 0.744 and 0.743 and 0.536 | normalized to DMSO, -46 ([3]; -46 reporter, single replicates 1-8 (two dates)): 0.671 and 0.712 and 0.669 and 0.819 and 1.007 and 0.479 and 0.251 and 0.821 | ff/rl, 46 leaky reporter ([3]; experiment 12.3.24): 3.84E-02 and 3.96E-02 and 4.16E-02 and 4.37E-02 | ff/rl, 46 reporter ([3]; experiment 12.3.24): 1.06E-01 (2×) and 1.12E-01 and 1.29E-01 | ff/rl, normal reporter ([3]; experiment 12.3.24): 2.90E-01 and 2.11E-01 and 2.89E-01 and 2.67E-01 | ff/rl, 46 leaky reporter ([3]; experiment 13.03.24): 1.47E-02 and 6.33E-03 and 2.31E-03 and 1.12E-02 | ff/rl, 46 reporter ([3]; experiment 13.03.24): 2.46E-02 and 1.17E-02 and 6.14E-03 and 2.01E-02 | ff/rl, normal reporter ([3]; experiment 13.03.24): 3.97E-02 and 5.12E-02 and 7.78E-02 and 1.08E-01 | reporter activity norm to DMSO, minus46 ([3]; minus46 reporter, 95nt from uORF to main ORF experiment, Figure 4N source data, replicate experiments, DMSO = 1): 0.3368 and 0.3707 | reporter activity norm to DMSO, minus 95 ([3]; minus 95 (nt) reporter, 95nt from uORF to main ORF experiment, Figure 4N source data, replicate experiments, DMSO = 1): 1.361 and 1.106 | reporter activity norm to DMSO, ref ([3]; ref reporter, 95nt from uORF to main ORF experiment, Figure 4N source data, replicate experiments, DMSO = 1): 0.8256 and 0.6094 | normalized to DMSO, refference, average ([3]; refference reporter, average of biological repeats): 0.908 | normalized to DMSO, refference ([3]; refference reporter, single replicates 1-8 (two dates)): 1.031 and 0.751 and 1.028 and 0.950 and 0.503 and 0.648 and 0.985 and 1.371 | normalized to DMSO, single replicates ([3]; reporter 46, experiment 12.3.24): 6.71E-01 and 7.12E-01 and 6.69E-01 and 8.19E-01 | normalize to DMSO, average ([3]; reporter 46, experiment 12.3.24, DMSO = 1): 0.7177 | normalized to DMSO, single replicates ([3]; reporter 46, experiment 13.3.24): 1.01E+00 and 4.79E-01 and 2.51E-01 and 8.21E-01 | normalize to DMSO, average ([3]; reporter 46, experiment 13.3.24, DMSO = 1): 0.6395 | normalize to DMSO, average ([3]; reporter 46 leaky, experiment 12.3.24, DMSO = 1): 1.036 | normalized to DMSO, single replicates ([3]; reporter 46 leaky, experiment 13.3.24): 1.62E+00 and 7.00E-01 and 2.55E-01 and 1.24E+00 | normalize to DMSO, average ([3]; reporter 46 leaky, experiment 13.3.24, DMSO = 1): 0.9525 | normalized to DMSO, single replicates ([3]; reporter normal (refference), experiment 12.3.24): 1.03E+00 (2×) and 7.51E-01 and 9.50E-01 | normalized to DMSO, single replicates ([3]; reporter normal (refference), experiment 13.3.24): 5.03E-01 and 6.48E-01 and 9.85E-01 and 1.37E+00 | normalize to DMSO, average ([3]; reporter refference, experiment 12.3.24, DMSO = 1): 0.9399 | normalize to DMSO, average ([3]; reporter refference, experiment 13.3.24, DMSO = 1): 0.8765 | inhibitory effect with extended (long) reinitiation distance ([3]; uORF to main ORF distance extended by 49 nt): lost | binding to NTT-truncated eIF1A (eIF1A without NTT): significantly decreased | fluorescence ratio, eIF1A Δ NTT (eIF1A without NTT; 1Ai conc. 0.25 uM): 0.8472 and 0.7714 | fluorescence ratio, eIF1A Δ NTT (eIF1A without NTT; 1Ai conc. 0.5 uM): 0.8794 and 0.8467 | fluorescence ratio, eIF1A Δ NTT (eIF1A without NTT; 1Ai conc. 1 uM): 0.866 and 0.8543 | fluorescence ratio, eIF1A Δ NTT (eIF1A without NTT; 1Ai conc. 2 uM): 0.8713 and 0.8518 | fluorescence ratio, eIF1A Δ NTT (eIF1A without NTT; 1Ai conc. 4 uM): 0.8204 and 0.8417 | fluorescence ratio, eIF1A Δ NTT (eIF1A without NTT; 1Ai conc. 8 uM): 2.437 and 0.8015 | fluorescence ratio, eIF1A Δ NTT (eIF1A without NTT; 1Ai conc. 16 uM): 0.7775 and 0.7663 | fluorescence ratio, eIF1A Δ NTT (eIF1A without NTT; 1Ai conc. 32 uM): 0.7078 and 0.6935 | fluorescence ratio, eIF1A Δ NTT (eIF1A without NTT; 1Ai conc. 64 uM): 0.6729 and 0.5628 | fluorescence ratio, eIF1A Δ NTT (eIF1A without NTT; 1Ai conc. 256 uM): 0.6059 and 0.6683 | IC50 (eIF1A without NTT; eIF1A Δ NTT, from the titration data, read-out: IC50 (eIF1A Δ NTT titration block)): 30.2 µM | IC50 (eIF1A without NTT; summary table, fluorescence binding assay, read-out: IC50 concentration (µM), NTT truncation): 45.7 µM

O=c1cc(CN2CCOCC2)occ1OCCCCCSc1ccnc2cc(C(F)(F)F)ccc12 [1Ai-5730]
average (inverted) ([4]; normalized to DMSO = 1.000, mean of 3 reps): 0.744 | CUG/AUG ratio (Renilla/firefly) ([4]; overnight): decreased the CUG/AUG ratio to variable degrees | FF CTG signal, mean of duplicates ([4]; reps 1-3): 5472.4 and 6803.94 and 6446.76 | FF vs Rluc ([4]; reps 1-3): 54.969 and 55.654 and 55.147 | FF vs Rluc, inverted ([4]; reps 1-3): 0.018 | Rluc ATG signal, mean of duplicates ([4]; reps 1-3): 2604320 and 3030300 and 3158315 | normalized to DMSO ([4]; reps 1-3, DMSO = 1): 0.748 and 0.739 and 0.745 | Reference vs IRF7 (Final data, Fig. 1E) ([1]; 20 µM): 1.720 | LONG (summary - All), normalized to DMSO ([1]; 10 µM): 0.65 and 0.52 and 0.40 and 0.70 | SHORT (summary - All), normalized to DMSO ([1]; Short reporter, 10 µM): 0.89 and 1.17 and 0.87 | Long 5'UTR reporter luciferase activity, normalized to DMSO (=1), single replicates ([1]; compound at 10 µM, left data block (Long), source data of Fig 1C): 0.6956 | Short: Normalized to average DMSO ([1]; data section, Short reporter, GFP-corrected, 10 µM, per experiment): 0.892 and 1.021 and 1.1679 | average ( long vs short ratio) ([1]; 10 µM): 0.581 | GFP reporter ratio nsp1/gfp, avg (NSP1): 0.5107 | GFP reporter ratio nsp1/gfp, rep 1 (NSP1): 0.524 | gfp signal, mean of duplicate wells (NSP1): 1636.5 | nsp1 signal, mean of duplicate wells (NSP1): 857.5 | ratio (nsp1/gfp) (NSP1): 0.524 | CUG vs AUG (%) [2, 6]: 9.994% | GUG vs AUG (%) [2, 6]: 3.756% | average CUG and GUG [2]: 3.9567 | average CUG and GUG relative to DMSO [2]: 0.8773 | CUG Average [2]: 6.145 | GUG Average [2]: 1.768 | NUG (Final data, Fig. 1E) [2]: 0.877 | GUG vs AUG data (%) ([2]; compound at 10uM): 1.66% and 2.32% and 1.73% and 1.38% | GUG vs AUG (%) Average ([2]; compound at 10uM): 1.77%
